Data taken from publication PMC8591627 (ACS infectious diseases, 2021).
Values joined by “and” are separate entries in the source; they are usually repeats but may differ in a detail not shown here. Equal values may be shown once.

How the values were obtained:
[1] = system: JSF-3151–resistant strains; assay: MIC versus JSF-3151-resistant strains compared to the parental strain; format: cell-based, Staphylococcus aureus
[2] = system: MRSA ATCC 43300; assay: MIC, drug susceptibility assay; format: cell-based, Staphylococcus aureus; conditions: 18 h; for MRSA ATCC 43300 MIC: 37 °C, visual inspection
[3] = system: Vero cells; format: cell-based; conditions: 72 h; for CC50: read-out: Vero cell CC50
[4] = system: MSSA ATCC 25923; assay: MIC, drug susceptibility assay; format: cell-based, Staphylococcus aureus; conditions: 18 h, 37 °C, visual inspection
[5] = system: S. aureus; conditions: 8x MIC; ref [13], [35]–[36]; cited from earlier work
[6] = system: MRSA COL strain; assay: Mouse peritonitis-sepsis model; format: in vivo, Staphylococcus aureus; conditions: single dose 100 mg/kg subcutaneous

## CC1(C)S[C@@H]2[C@H](NC(=O)[C@H](N)c3ccccc3)C(=O)N2[C@H]1C(=O)O [Ampicillin]
[1]
  MIC versus JSF-3151–resistant strains compared to parental strain: same MIC

## O=C(Nc1cccc(N2CCOC2=O)c1)c1ccc([N+](=O)[O-])o1 [JSF-3153]
[2]; listed as Z364195972 (3153)
  MRSA ATCC 43300 MIC: 3.1 μg/mL and 10 μM
[3]
  Vero cell CC50: 1.6 µg/mL
  CC50: 5 µM
[4]; listed as Z364195972 (3153)
  MSSA ATCC 25923 MIC: 6.2 μg/mL and 20 μM

## CO[C@H]1/C=C/O[C@@]2(C)Oc3c(C)c(O)c4c(O)c(c(/C=N/N5CCN(C)CC5)c(O)c4c3C2=O)NC(=O)/C(C)=C\C=C\[C@H](C)[C@H](O)[C@@H](C)[C@@H](O)[C@@H](C)[C@H](OC(C)=O)[C@@H]1C [Rifampicin]
[1]
  MIC versus JSF-3151–resistant strains compared to parental strain: same MIC

## O=C(O)c1cn(C2CC2)c2cc(N3CCNCC3)c(F)cc2c1=O [ciprofloxacin]
[5]
  resistance frequency: 1 x 10^−9 to 1 x 10^−6

## CC[C@H]1OC(=O)[C@H](C)[C@@H](O[C@H]2C[C@@](C)(OC)[C@@H](O)[C@H](C)O2)[C@H](C)[C@@H](O[C@@H]2O[C@H](C)C[C@H](N(C)C)[C@H]2O)[C@](C)(O)C[C@@H](C)C(=O)[C@H](C)[C@@H](O)[C@]1(C)O [erythromycin]
[1]
  MIC versus JSF-3151–resistant strains compared to parental strain: same MIC

## CN(C)c1nnc(-c2ccc(NC(=O)c3ccc([N+](=O)[O-])o3)cc2)o1 [JSF-3157]
[2]; listed as Z1542057255 (3157)
  MRSA ATCC 43300 MIC: 6.2 μg/mL and 18 μM
[3]
  Vero cell CC50: 0.78 µg/mL
  CC50: 2 µM
[4]; listed as Z1542057255 (3157)
  MSSA ATCC 25923 MIC: 6.2 μg/mL and 18 μM

## CC(=O)N1CCN(c2cc3c(cc2F)c(=O)c(C(=O)N2CCCc4ccccc42)cn3C2CC2)CC1 [JSF-3145]
[2]; listed as Z27692293 (3145)
  MRSA ATCC 43300 MIC: 12 μg/mL and 25 μM
[3]
  Vero cell CC50: > 50 µg/mL
  CC50: > 100 µM
[4]; listed as Z27692293 (3145)
  MSSA ATCC 25923 MIC: 12 μg/mL and 25 μM

## CN[C@H](CC(C)C)C(=O)N[C@H]1C(=O)N[C@@H](CC(N)=O)C(=O)N[C@H]2C(=O)N[C@H]3C(=O)N[C@H](C(=O)N[C@H](C(=O)O)c4cc(O)cc(O)c4-c4cc3ccc4O)[C@H](O)c3ccc(c(Cl)c3)Oc3cc2cc(c3O[C@@H]2O[C@H](CO)[C@@H](O)[C@H](O)[C@H]2O[C@H]2C[C@](C)(N)[C@H](O)[C@H](C)O2)Oc2ccc(cc2Cl)[C@H]1O [vancomycin]
[6]
  mice surviving 3 d post-administration: 12/12
[1]
  MIC versus JSF-3151–resistant strains compared to parental strain: same MIC
[5]
  resistance frequency: 1 x 10^−9 to 1 x 10^−6

## C[C@H]1c2cccc(O)c2C(=O)C2=C(O)[C@]3(O)C(=O)C(C(N)=O)=C(O)[C@@H](N(C)C)[C@@H]3[C@@H](O)[C@@H]21 [Doxycycline]
[1]
  MIC versus JSF-3151–resistant strains compared to parental strain: same MIC

## Nc1ccc(C(=O)Nc2cc(Cl)cc3cccnc23)s1 [JSF-3640, 5-amino-N-(6-chloroquinolin-8-yl)thiophene-2-carboxamide]
[2]; Staphylococcus aureus, ATCC43300|MRSA, read-out: MRSA ATCC 43300 MIC
  MIC: > 50 µg/mL

## CC(=O)NC[C@H]1CN(c2ccc(N3CCOCC3)c(F)c2)C(=O)O1 [linezolid]
[5]
  resistance frequency: 1 x 10^−9 to 1 x 10^−6
